Data from PMC7587962, “Evaluation of Cytotoxicity and α-Glucosidase Inhibitory Activity of Amide and Polyamino-Derivatives of Lupane Triterpenoids” (Molecules, 2020).

What was measured:
CCRF-CEM = assay: NCI-60 SRB screen: leukemia CCRF-CEM; format: cell-based; details: Homo sapiens, 48 h
K-562 = assay: NCI-60 SRB screen: leukemia K-562; format: cell-based, human; details: K-562
MOLT-4 = assay: NCI-60 SRB screen: leukemia MOLT-4; format: cell-based; details: Homo sapiens, 48 h, MOLT-4
RPMI-8226 = assay: NCI-60 SRB screen: leukemia RPMI-8226; format: cell-based; details: Homo sapiens, 48 h, RPMI-8226
A549/ATCC = assay: NCI-60 SRB screen: non-small cell lung cancer A549/ATCC; format: cell-based, human; details: A549/ATCC
EKVX = assay: NCI-60 SRB screen: non-small cell lung cancer EKVX; format: cell-based, human
HOP-62 = assay: NCI-60 SRB screen: non-small cell lung cancer HOP-62; format: cell-based, human; details: HOP-62
HOP-92 = assay: NCI-60 SRB screen: non-small cell lung cancer HOP-92; format: cell-based, human; details: HOP-92
NCI-H23 = assay: NCI-60 SRB screen: non-small cell lung cancer NCI-H23; format: cell-based, human; details: NCI-H23
NCI-H322M = assay: NCI-60 SRB screen: non-small cell lung cancer NCI-H322M; format: cell-based, human
NCI-H460 = assay: NCI-60 SRB screen: non-small cell lung cancer NCI-H460; format: cell-based; details: Homo sapiens, 48 h, NCI-H460
HCC-2998 = assay: NCI-60 SRB screen: colon cancer HCC-2998; format: cell-based, human; details: HCC-2998
HT29 = assay: NCI-60 SRB screen: colon cancer HT29; format: cell-based; details: Homo sapiens, HT29
KM12 = assay: NCI-60 SRB screen: colon cancer KM12; format: cell-based, human; details: KM12
SF-268 = assay: NCI-60 SRB screen: CNS cancer SF-268; format: cell-based, human; details: SF-268
SF-295 = assay: NCI-60 SRB screen: CNS cancer SF-295; format: cell-based, human; details: SF-295
SF-539 = assay: NCI-60 SRB screen: CNS cancer SF-539; format: cell-based, human; details: SF-539
SNB-75 = assay: NCI-60 SRB screen: CNS cancer SNB-75; format: cell-based, human; details: SNB-75
U251 = assay: NCI-60 SRB screen: CNS cancer U251; format: cell-based; details: Homo sapiens, U251
MALME-3M = assay: NCI-60 SRB screen: melanoma MALME-3M; format: cell-based, human; details: MALME-3M
MDA-MB-435 = assay: NCI-60 SRB screen: melanoma MDA-MB-435; format: cell-based, human; details: MDA-MB-435
SK-MEL-5 = assay: NCI-60 SRB screen: melanoma SK-MEL-5; format: cell-based, human; details: SK-MEL-5
IGROV1 = assay: NCI-60 SRB screen: ovarian cancer IGROV1; format: cell-based, human; details: IGROV1
OVCAR-3 = assay: NCI-60 SRB screen: ovarian cancer OVCAR-3; format: cell-based, human; details: OVCAR-3
OVCAR-5 = assay: NCI-60 SRB screen: ovarian cancer OVCAR-5; format: cell-based, human; details: OVCAR-5
OVCAR-8 = assay: NCI-60 SRB screen: ovarian cancer OVCAR-8; format: cell-based, human; details: OVCAR-8
ACHN = assay: NCI-60 SRB screen: renal cancer ACHN; format: cell-based, human
CAKI-1 = assay: NCI-60 SRB screen: renal cancer CAKI-1; format: cell-based, human; details: CAKI-1
RXF 393 = assay: NCI-60 SRB screen: renal cancer RXF 393; format: cell-based, human; details: RXF 393
TK-10 = assay: NCI-60 SRB screen: renal cancer TK-10; format: cell-based, human; details: TK-10
DU-145 = assay: NCI-60 SRB screen: prostate cancer DU-145; format: cell-based, human; details: DU-145
MDA-MB-231/ATCC = assay: NCI-60 SRB screen: breast cancer MDA-MB-231/ATCC; format: cell-based; details: Homo sapiens, 48 h
HS 578T = assay: NCI-60 SRB screen: breast cancer HS 578T; format: cell-based, human; details: HS 578T
T-47D = assay: NCI-60 SRB screen: breast cancer T-47D; format: cell-based, human; details: T-47D
NSCL cancer subpanel = assay: NCI-60 screen, subpanel NSCL cancer
Renal Cancer subpanel = assay: NCI-60 screen, subpanel Renal Cancer
Ovarian Cancer subpanel = assay: NCI-60 screen, subpanel Ovarian Cancer
[1] = single dose 10 µM, read-out: Percentage Cell Growth
[2] = five concentrations, SRB, read-out: GI50
[3] = Homo sapiens, five concentrations, 48 h, SRB, read-out: GI50

Structure (SMILES): CC(=O)OCC12CCC(C(C)C(N)=O)C1C1CCC3C4(C)CCC(OC(C)=O)C(C)(C)C4CCC3(C)C1(C)CC2 [Compound 4, 3β,28-Diacetyloxy-(20R)-29-amino-29-oxolupane]
- activity at 10 µM (CCRF-CEM; [1]): -12.4%
- GI50 (CCRF-CEM; [2]): 5.19 µM
- GI50 (K-562; Homo sapiens, K562, five concentrations, 48 h, SRB, read-out: GI50): 4.09 µM
- Percentage Cell Growth (K-562; single dose 10 µM): 3.10%
- activity at 10 µM (MOLT-4; [1]): -29.1%
- GI50 (MOLT-4; [2]): 3.29 µM
- activity at 10 µM (RPMI-8226; [1]): -18.3%
- GI50 (RPMI-8226; [2]): 2.63 µM
- Percentage Cell Growth (A549/ATCC; single dose 10 µM): 9.89%
- GI50 (A549/ATCC; [3]): 3.97 µM
- GI50 (EKVX; [3]): 9.28 µM
- Percentage Cell Growth (EKVX; single dose 10 µM): −25.21%
- Percentage Cell Growth (HOP-62; single dose 10 µM): −72.98%
- GI50 (HOP-62; [3]): 1.1 µM
- Percentage Cell Growth (HOP-92; single dose 10 µM): −83.15%
- GI50 (HOP-92; [3]): 5.21 µM
- GI50 (NCI-H23; [3]): 9.42 µM
- Percentage Cell Growth (NCI-H23; single dose 10 µM): −40.35%
- GI50 (NCI-H322M; [3]): 13 µM
- Percentage Cell Growth (NCI-H322M; single dose 10 µM): −78.19%
- activity at 10 µM (NCI-H460; [1]): -61.8%
- GI50 (NCI-H460; [2]): 13.4 µM
- Percentage Cell Growth (HCC-2998; single dose 10 µM): −68.10%
- GI50 (HCC-2998; [3]): 10.4 µM
- activity at 10 µM (HT29; HT-29, 48 h, single dose 10 µM, read-out: Percentage Cell Growth): -77.7%
- GI50 (HT29; HT-29, five concentrations, 48 h, SRB, read-out: GI50): 3.73 µM
- GI50 (KM12; [3]): 3.86 µM
- Percentage Cell Growth (KM12; single dose 10 µM): −62.05%
- GI50 (SF-268; [3]): 6.95 µM
- Percentage Cell Growth (SF-268; single dose 10 µM): −61.04%
- GI50 (SF-295; [3]): 8.57 µM
- Percentage Cell Growth (SF-295; single dose 10 µM): −50.75%
- GI50 (SF-539; [3]): 5.52 µM
- Percentage Cell Growth (SF-539; single dose 10 µM): −83.91%
- GI50 (SNB-75; [3]): 5.59 µM
- Percentage Cell Growth (SNB-75; single dose 10 µM): −47.83%
- activity at 10 µM (U251; U-251, 48 h, single dose 10 µM, read-out: Percentage Cell Growth): -51.4%
- GI50 (U251; U-251, five concentrations, 48 h, SRB, read-out: GI50): 5.1 µM
- GI50 (MALME-3M; [3]): 10.5 µM
- Percentage Cell Growth (MALME-3M; single dose 10 µM): −88.97%
- GI50 (MDA-MB-435; [3]): 5.23 µM
- Percentage Cell Growth (MDA-MB-435; single dose 10 µM): −63.78%
- GI50 (SK-MEL-5; [3]): 3.8 µM
- Percentage Cell Growth (SK-MEL-5; single dose 10 µM): −71.94%
- GI50 (IGROV1; Homo sapiens, IGROV-1, five concentrations, 48 h, SRB, read-out: GI50): 13.2 µM
- Percentage Cell Growth (IGROV1; single dose 10 µM): −71.25%
- GI50 (OVCAR-3; [3]): 3.95 µM
- Percentage Cell Growth (OVCAR-3; single dose 10 µM): −76.19%
- GI50 (OVCAR-5; [3]): 14.4 µM
- Percentage Cell Growth (OVCAR-5; single dose 10 µM): −77.37%
- GI50 (OVCAR-8; [3]): 54.4 µM
- Percentage Cell Growth (OVCAR-8; single dose 10 µM): −31.70%
- GI50 (ACHN; [3]): 5.78 µM
- Percentage Cell Growth (ACHN; single dose 10 µM): −75.68%
- Percentage Cell Growth (CAKI-1; single dose 10 µM): −45.80%
- GI50 (CAKI-1; [3]): 3.24 µM
- GI50 (RXF 393; [3]): 4.28 µM
- Percentage Cell Growth (RXF 393; single dose 10 µM): −64.94%
- GI50 (TK-10; [3]): 14.7 µM
- Percentage Cell Growth (TK-10; single dose 10 µM): −35.40%
- Percentage Cell Growth (DU-145; single dose 10 µM): −69.87%
- GI50 (DU-145; [3]): 9.94 µM
- activity at 10 µM (MDA-MB-231/ATCC; MDA-MB-231/ATCC, single dose 10 µM, read-out: Percentage Cell Growth): -88.6%
- GI50 (MDA-MB-231/ATCC; MDA-MB-231, MDA-MB-31/ATCC, five concentrations, SRB, read-out: GI50): 11.8 µM
- Percentage Cell Growth (HS 578T; single dose 10 µM): −32.99%
- GI50 (HS 578T; [3]): 12.4 µM
- GI50 (T-47D; Homo sapiens, T47D, five concentrations, 48 h, SRB, read-out: GI50): 2.91 µM
- Percentage Cell Growth (T-47D; single dose 10 µM): −8.82%
- MID b, average sensitivity of all cell line of particular subpanel (NSCL cancer subpanel): 7.50 µM
- Selectivity, ratio MID a: MID b (NSCL cancer subpanel): 1.05
- MID b, average sensitivity of all cell line of particular subpanel (Renal Cancer subpanel): 8.12 µM
- Selectivity, ratio MID a: MID b (Renal Cancer subpanel): 0.97
- MID b, average sensitivity of all cell line of particular subpanel (Ovarian Cancer subpanel): 15.97 µM
- Selectivity, ratio MID a: MID b (Ovarian Cancer subpanel): 0.49
